Assay results: ChEMBL document CHEMBL5214948, “Boronic Acid: A Novel Pharmacophore Targeting Src Homology 2 (SH2) Domain of STAT3” (J Med Chem, 2022)
Activity calls are given as the source filed them. The calls are words filed in the database; no cut-off is given here.

Assays:
MGC-803 [1] = assay: Antitumor activity against human MGC-803 cells xenografted in ip dosed BALB/c nude mouse assessed as supression of tumor growth measured every day for 20 days; format: functional, organism-based; details: dose 5-15 mg/kg, time 20.0 day, DDE = dose-dependent effect
[2] = molecular target: T1, Signal transducer and activator of transcription 3 (Homo sapiens, UniProt P40763); assay: Inhibition of STAT3 transcriptional activity in human AGS cells assessed as downregulation of Bcl-xL protein expression at 1 to 3 uM incubated for 24 hrs by Western blot analysis; format: cell-based; details: dose 1-3 µM
Target sequence in this assay (P40763 whole entry, the tested form may be a part): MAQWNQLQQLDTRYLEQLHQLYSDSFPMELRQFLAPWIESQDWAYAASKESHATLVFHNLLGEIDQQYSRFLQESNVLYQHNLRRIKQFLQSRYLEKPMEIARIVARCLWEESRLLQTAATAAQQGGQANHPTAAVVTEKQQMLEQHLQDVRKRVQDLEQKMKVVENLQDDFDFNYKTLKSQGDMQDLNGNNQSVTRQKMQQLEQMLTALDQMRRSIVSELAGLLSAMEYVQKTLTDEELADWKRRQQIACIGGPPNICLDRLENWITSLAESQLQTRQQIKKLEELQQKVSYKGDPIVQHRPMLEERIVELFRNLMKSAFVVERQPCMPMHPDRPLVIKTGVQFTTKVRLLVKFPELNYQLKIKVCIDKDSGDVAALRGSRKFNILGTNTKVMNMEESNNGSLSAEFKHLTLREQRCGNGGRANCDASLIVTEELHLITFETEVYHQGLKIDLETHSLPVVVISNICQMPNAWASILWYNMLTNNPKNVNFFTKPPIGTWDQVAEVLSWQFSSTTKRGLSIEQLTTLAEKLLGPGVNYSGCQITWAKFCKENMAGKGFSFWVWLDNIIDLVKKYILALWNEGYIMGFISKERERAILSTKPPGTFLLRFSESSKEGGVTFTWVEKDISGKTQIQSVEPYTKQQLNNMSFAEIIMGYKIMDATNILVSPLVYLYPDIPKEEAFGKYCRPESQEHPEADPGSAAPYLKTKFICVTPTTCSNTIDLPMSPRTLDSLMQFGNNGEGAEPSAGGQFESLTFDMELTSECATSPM

[3] = molecular target: T1, Signal transducer and activator of transcription 3; assay: Binding affinity to full length wild type STAT3-SH2 domain (unknown origin) assessed as association constant by SPR analysis
Target sequence in this assay (P40763 whole entry, the tested form may be a part): as above

[4] = molecular target: T1, Signal transducer and activator of transcription 3; assay: Inhibition of STAT3 at Y705 residue phosphorylation at in human MGC-803 cells at 5 uM pretreated for 48 hrs followed by compound washout and measured after 72 hrs by immunoblotting analysis
Target sequence in this assay (P40763 whole entry, looked up, the tested form may be a part): as the sequence (P40763 whole entry, the tested form may be a part) above

[5] = molecular target: T1, Signal transducer and activator of transcription 3; assay: Inhibition of STAT3 transcriptional activity in human MGC-803 cells assessed as downregulation of Bcl-xL protein expression at 3 to 5 uM incubated for 24 hrs by Western blot analysis; format: cell-based; details: dose 3-5 µM
Target sequence in this assay (P40763 whole entry, the tested form may be a part): as above

MGC-803 [6] = assay: Inhibition of cell migration in human MGC-803 cells assessed as cell migration incubated for 24 hrs by microscopy based by scratch wound healing assay; format: functional; details: dose 1-3 µM, DDE = dose-dependent effect
[7] = molecular target: T1, Signal transducer and activator of transcription 3; assay: Inhibition of STAT3 phosphorylation at Tyr705 residue in human AGS cells incubated for 24 hrs by Western blot analysis; format: cell-based; details: dose 1-3 µM, DDE = dose-dependent effect
Target sequence in this assay (P40763 whole entry, the tested form may be a part): as above

[8] = molecular target: T1, Signal transducer and activator of transcription 3; assay: Inhibition of STAT3 transcriptional activity transfected in HEK293T cells at 3 to 5 uM incubated for 24 hrs by dual-ludferase reporter gene assay; format: cell-based; details: dose 3-5 µM
Target sequence in this assay (P40763 whole entry, the tested form may be a part): as above

MGC-803 [9] = assay: Induction of apoptosis in human MGC-803 cells at 5 uM incubated for 72 hrs by V-FITC/PI staining based flow cytometry assay; format: functional
AGS [10] = assay: Antiproliferative activity against human AGS cells assessed as reduction in cell viability at 1 to 3 uM incubated for 72 hrs by Edu incorporation assay; format: functional, cell-based; details: dose 1-3 µM
[11] = Volume of distribution at steady state in ICR mouse at 5 mg/kg, iv measured upto 24 hrs by LC-MS/MS analysis; format: ADME, organism-based; details: in vivo, read-out: Vdss
AGS [12] = assay: Induction of apoptosis in human AGS cells at 1 uM incubated for 72 hrs by V-FITC/PI staining based flow cytometry assay; format: functional
AGS [13] = assay: Inhibition of colony formation in human AGS cells at 0.5 uM incubated for 10 to 15 days by crystal violet staining based assay; format: functional, cell-based; details: time 10-15 day
AGS [14] = assay: Inhibition of cell migration in human AGS cells assessed as cell migration incubated for 24 hrs by microscopy based by scratch wound healing assay; format: functional; details: dose 1-3 µM, DDE = dose-dependent effect
[15] = Toxicity in BALB/c nude mouse xenografted with MGC-803 cells assessed as effect on body weight at 15 mg/kg, ip measured every day for 20 days; format: organism-based; details: in vivo, 480 h, time 20 day
MGC-803 [16] = assay: Antitumor activity against human MGC-803 cells xenografted in BALB/c nude mouse assessed as reduction in tumor progression at 5 mg/kg, ip measured every day for 20 days by immunohistochemical analysis; format: functional, organism-based; details: time 20.0 day
MGC-803 [17] = assay: Antitumor activity against human MGC-803 cells xenografted in BALB/c nude mouse assessed as reduction in phosphorylated STAT3 at Y705 residue at 15 mg/kg, ip measured every day for 20 days by immunohistochemical analysis; format: functional, organism-based; details: time 20.0 day
MGC-803 [18] = assay: Antitumor activity against human MGC-803 cells xenografted in BALB/c nude mouse assessed as reduction in tumor cells at 15 mg/kg, ip measured every day for 20 days by immunohistochemical analysis; format: functional, organism-based; details: time 20.0 day
[19] = Cmax in ICR mouse at 5 mg/kg, iv measured upto 24 hrs by LC-MS/MS analysis; format: ADME, organism-based; set-up: time < 24 hrs, dose 5 mg/kg, route iv; details: in vivo
[20] = Antiproliferative activity against […] H9c2 cells assessed as reduction in cell viability incubated for 72 hrs by CCK-8 assay; format: toxicity, cell-based; details: rat
[21] = molecular target: T1, Signal transducer and activator of transcription 3; assay: Inhibition of STAT3 transcriptional activity in human MGC-803 cells assessed as downregulation of C-myc protein expression at 3 to 5 uM incubated for 24 hrs by Western blot analysis; format: cell-based; details: dose 3-5 µM
Target sequence in this assay (P40763 whole entry, the tested form may be a part): as above

[22] = Toxicity in nude BALB/c nude mouse xenografted with human MGC-803 cells assessed as morphological changes in lung at 5 to 15 mg/kg, ip measured every day for 20 days by H and E staining based assay; format: organism-based; details: in vivo, 480 h, time 20 day
[23] = Toxicity in BALB/c nude mouse xenografted with MGC-803 cells assessed as effect on body weight at 5 mg/kg, ip measured every day for 20 days; format: organism-based; details: in vivo, 480 h, time 20 day
[24] = molecular target: T1, Signal transducer and activator of transcription 3; assay: Inhibition of STAT3 transcriptional activity in human AGS cells assessed as downregulation of C-myc protein expression at 1 to 3 uM incubated for 24 hrs by Western blot analysis; format: cell-based; details: dose 1-3 µM
MGC-803 [25] = assay: Antitumor activity against human MGC-803 cells xenografted in BALB/c nude mouse assessed as reduction in c-myc expression at 5 mg/kg, ip measured every day for 20 days by immunohistochemical analysis; format: functional, organism-based; details: time 20.0 day
MGC-803 [26] = assay: Inhibition of cell invasion in human MGC-803 cells measured after 24 hrs by crystal violet staining based imaging transwell assay; format: functional; details: DDE = dose-dependent effect
MGC-803 [27] = assay: Antitumor activity against human MGC-803 cells xenografted in BALB/c nude mouse assessed as reduction in Ki67 expression at 5 mg/kg, ip measured every day for 20 days by immunohistochemical analysis; format: functional, organism-based; details: time 20.0 day

SMILES: CN(CC(=O)N(Cc1ccc(C2CCCCC2)cc1)c1ccc(B(O)O)cc1)S(=O)(=O)c1c(F)c(F)c(F)c(F)c1F
- Activity (MGC-803 [1]): Dde
- inhibition [2]: Active
- Ka [3]: 1.25 10^3/M/s
- inhibition [4]: Active
- inhibition [5]: Active
- inhibition (MGC-803 [6]): Dde
- inhibition [7]: Dde
- inhibition [8]: Active
- Activity (MGC-803 [9]): 11.2%
- Activity (AGS [10]): Active
- Vd [11]: 18.7 L/kg
- Activity (AGS [12]): 13%
- inhibition (AGS [13]): Active
- inhibition (AGS [14]): Dde
- Activity [15]: Non-Toxic
- Activity (MGC-803 [16]): Active
- Activity (MGC-803 [17]): Active
- Activity (MGC-803 [18]): Active
- Cmax [19]: 1500 ng/mL
- IC50 at 72 h [20]: 9.05 µM
- inhibition [21]: Active
- Activity [22]: Non-Toxic
- Activity [23]: Non-Toxic
- inhibition [24]: Active
- Activity (MGC-803 [25]): Active
- inhibition (MGC-803 [26]): Dde
- Activity (MGC-803 [27]): Active
